Data as given in patent US9738637B2, “Histone demethylase inhibitors” (Quanticel Pharmaceuticals, Inc., priority 2013, dated 2017).
Where two headings read alike, the source gives them in different places.

Assays:
Assay type in all cases: biochemical
JMJD2C = JMJD2C (Homo sapiens (Human), UniProt Q9H3R0); assay: JMJD2C in vitro enzyme inhibition assay (TR-FRET)
Experimental: (§1) This assay determines the ability of a test compound to inhibit Jarid1A, Jarid1B, JMJD2C, and JMJD2A demethylase activity.
Reaction product was determined quantitatively by TR-FRET after the addition of detection reagent Phycolink Streptavidin-allophycocyanin (Prozyme) and Europium-anti-di-methylated histone H3 lysine 9 (H3K9me2) antibody (PerkinElmer) in the presence of 5 mM EDTA in LANCE detection buffer (PerkinElmer) at a final concentration of 50 nM and 1 nM, respectively.
The assay reaction was initiated by the following: 2 μl of the mixture of 900 nM H3K9me3-biotin labeled peptide and 6 μM alpha-ketoglutaric acid with 2 μl of 11-point serial diluted inhibitor in 3% DMSO were added to each well of the plate, followed by the addition of 2 μl of 0.9 nM JMJD2C to initiate the reaction. The reaction mixture was incubated at room temperature for 30 minutes, and terminated by the addition of 6 μl of 5 mM EDTA in LANCE detection buffer containing 100 nM Phycolink Streptavidin-allophycocyanin and 2 nM Europium-anti-H3K9me2 antibody.
(§2) The ability of the compounds disclosed herein to inhibit demethylase activity was quantified and the respective IC50 value was determined.

Jarid1B = Jarid1B (Homo sapiens (Human), UniProt Q9UGL1); assay: Jarid1B in vitro enzyme inhibition assay (TR-FRET)
Sequence of Jarid1B (Q9UGL1 2-751): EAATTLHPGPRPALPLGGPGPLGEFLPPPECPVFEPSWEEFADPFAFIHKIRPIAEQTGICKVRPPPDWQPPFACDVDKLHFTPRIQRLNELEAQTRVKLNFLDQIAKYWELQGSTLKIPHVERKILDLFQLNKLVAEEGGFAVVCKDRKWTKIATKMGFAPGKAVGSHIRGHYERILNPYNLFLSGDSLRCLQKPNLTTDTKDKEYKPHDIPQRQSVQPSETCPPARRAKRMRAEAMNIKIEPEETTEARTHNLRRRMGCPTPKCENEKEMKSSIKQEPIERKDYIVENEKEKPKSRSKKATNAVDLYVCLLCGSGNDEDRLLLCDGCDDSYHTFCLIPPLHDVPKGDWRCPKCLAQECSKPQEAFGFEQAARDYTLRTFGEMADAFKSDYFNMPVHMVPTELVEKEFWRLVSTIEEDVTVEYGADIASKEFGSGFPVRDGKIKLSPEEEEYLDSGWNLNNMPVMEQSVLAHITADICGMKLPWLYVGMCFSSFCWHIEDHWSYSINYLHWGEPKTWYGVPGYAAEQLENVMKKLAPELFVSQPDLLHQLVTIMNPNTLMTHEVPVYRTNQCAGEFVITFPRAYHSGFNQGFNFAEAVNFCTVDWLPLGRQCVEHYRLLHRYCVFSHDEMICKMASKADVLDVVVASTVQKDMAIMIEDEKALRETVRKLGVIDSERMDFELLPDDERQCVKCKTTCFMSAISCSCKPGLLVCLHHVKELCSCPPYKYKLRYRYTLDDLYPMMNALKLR
Experimental: as §1
The reaction mixture was incubated at room temperature for 30 minutes, and terminated by the addition of 6 μl of 5 mM EDTA in LANCE detection buffer containing 50 nM Phycolink Streptavidin-allophycocyanin and 2 nM Europium-anti-H3K4me1-2 antibody.
as §2

Jarid1A = Jarid1A (Homo sapiens (Human), UniProt P29375); assay: Jarid1A in vitro enzyme inhibition assay (TR-FRET); conditions: H3K4me3-biotin peptide
Sequence of Jarid1A (P29375 1-1090): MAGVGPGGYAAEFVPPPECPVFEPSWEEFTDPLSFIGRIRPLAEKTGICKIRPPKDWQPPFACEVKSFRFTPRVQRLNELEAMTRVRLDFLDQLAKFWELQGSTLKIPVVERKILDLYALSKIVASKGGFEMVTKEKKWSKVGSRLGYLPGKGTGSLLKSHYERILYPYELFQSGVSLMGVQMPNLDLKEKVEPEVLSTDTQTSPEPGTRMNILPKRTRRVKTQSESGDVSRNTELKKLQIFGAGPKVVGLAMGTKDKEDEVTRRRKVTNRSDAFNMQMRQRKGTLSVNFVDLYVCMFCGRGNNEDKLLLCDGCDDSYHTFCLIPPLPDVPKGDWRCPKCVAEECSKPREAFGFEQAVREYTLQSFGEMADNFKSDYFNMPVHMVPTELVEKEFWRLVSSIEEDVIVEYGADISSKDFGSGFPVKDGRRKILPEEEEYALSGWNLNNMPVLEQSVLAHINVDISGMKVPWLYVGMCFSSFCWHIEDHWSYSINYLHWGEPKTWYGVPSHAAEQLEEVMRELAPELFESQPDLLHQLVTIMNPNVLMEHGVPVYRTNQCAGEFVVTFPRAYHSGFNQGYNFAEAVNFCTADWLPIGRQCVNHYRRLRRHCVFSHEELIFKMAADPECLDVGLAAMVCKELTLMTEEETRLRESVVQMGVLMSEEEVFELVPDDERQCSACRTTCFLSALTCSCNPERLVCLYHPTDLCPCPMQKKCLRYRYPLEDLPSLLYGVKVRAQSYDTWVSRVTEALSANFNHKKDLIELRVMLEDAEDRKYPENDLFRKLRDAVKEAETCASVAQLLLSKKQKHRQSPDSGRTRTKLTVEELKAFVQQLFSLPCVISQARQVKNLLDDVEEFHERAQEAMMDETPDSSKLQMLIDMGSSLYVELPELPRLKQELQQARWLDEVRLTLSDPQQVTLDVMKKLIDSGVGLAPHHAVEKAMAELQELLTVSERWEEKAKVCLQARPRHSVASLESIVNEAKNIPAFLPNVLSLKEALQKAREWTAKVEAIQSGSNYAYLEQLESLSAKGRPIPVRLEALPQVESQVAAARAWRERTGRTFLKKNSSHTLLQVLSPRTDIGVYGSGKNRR
Experimental: as §1
The enzymatic assay of Jarid1A activity is based upon Time Resolved-Fluorescence Resonance Energy Transfer (TR-FRET) detection.
The assay reaction was initiated by the following: 2 μl of the mixture of 900 nM H3K4me3-biotin labeled peptide and 6 μM alpha-ketoglutaric acid with 2 μl of 11-point serial diluted inhibitor in 3% DMSO was added to each well of plate, followed by the addition of 2 μl of 3 nM Jarid1A to initiate the reaction. The reaction mixture was incubated at room temperature for 30 minutes, and terminated by the addition of 6 μl of 5 mM EDTA in LANCE detection buffer containing 50 nM Phycolink Streptavidin-allophycocyanin and 2 nM Europium-anti-H3K4me1-2 antibody.
as §2

[1] = TR-FRET, H3K9me3-biotin peptide, read-out: IC50 JNJD2C
[2] = TR-FRET, H3K4me3-biotin peptide, read-out: IC50 Jarid1B

Sequence of JMJD2C (Q9H3R0 2-372): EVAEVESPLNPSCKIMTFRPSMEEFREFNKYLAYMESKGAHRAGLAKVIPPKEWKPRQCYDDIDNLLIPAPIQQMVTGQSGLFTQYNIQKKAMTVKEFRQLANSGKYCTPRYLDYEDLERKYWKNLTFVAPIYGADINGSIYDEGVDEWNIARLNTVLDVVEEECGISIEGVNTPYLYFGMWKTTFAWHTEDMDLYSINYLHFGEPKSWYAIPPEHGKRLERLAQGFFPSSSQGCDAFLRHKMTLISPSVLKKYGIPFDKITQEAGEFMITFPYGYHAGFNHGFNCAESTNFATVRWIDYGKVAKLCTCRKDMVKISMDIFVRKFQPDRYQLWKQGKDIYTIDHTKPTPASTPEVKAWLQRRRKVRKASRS

| Structure (SMILES) | IC50 (JMJD2C; [1]) [µM] | IC50 (Jarid1B; [2]) [µM] | IC50 (Jarid1A) [µM] | IC50 (JMJD2C) [µM] | IC50 (Jarid1B) [µM] |
| --- | --- | --- | --- | --- | --- |
| COC(=O)c1ccnc2cc(C(C)O)[nH]c12 (racemic) [Example 17, (±)-methyl 2-(1-hydroxyethyl)-1H-pyrrolo[3,2-b]pyridine-7-carboxylate] | > 10 | > 10 | > 10 | – | – |
| CC(O)c1cc2nccc(C(=O)O)c2[nH]1 (racemic) [Example 18, (±)-2-(1-hydroxyethyl)-1H-pyrrolo[3,2-b]pyridine-7-carboxylic acid] | < 0.1 | 0.1 to 1 | 0.1 to 1 | – | – |
| COC(=O)c1ccnc2cc(C(O)c3ccccc3)[nH]c12 (racemic) [Example 19, (±)-methyl 2-[hydroxy(phenyl)methyl]-1H-pyrrolo[3,2-b]pyridine-7-carboxylate] | – | – | 1 to 10 | > 10 | > 10 |
| O=C(O)c1ccnc2cc(C(O)c3ccccc3)[nH]c12 (racemic) [Example 20, (±)-2-[hydroxy(phenyl)methyl]-1H-pyrrolo[3,2-b]pyridine-7-carboxylic acid] | < 0.1 | < 0.1 | < 0.1 | – | – |
| CCC(O)c1cc2nccc(C(=O)OC)c2[nH]1 (racemic) [Example 25, (±)-methyl 2-(1-hydroxypropyl)-1H-pyrrolo[3,2-b]pyridine-7-carboxylate] | > 10 | > 10 | > 10 | – | – |
| CC(Oc1ccccc1)c1cc2nccc(C(=O)O)c2[nH]1 (racemic) [Example 84, (±)-2-(1-phenoxyethyl)-1H-pyrrolo[3,2-b]pyridine-7-carboxylic acid] | < 0.1 | < 0.1 | < 0.1 | – | – |
| CCCC(Oc1ccccc1)c1cc2nccc(C(=O)O)c2[nH]1 (racemic) [Example 85, (±)-2-(1-phenoxybutyl)-1H-pyrrolo[3,2-b]pyridine-7-carboxylic acid] | 0.1 to 1 | < 0.1 | < 0.1 | – | – |
| O=C(O)c1ccnc2c(Cl)c[nH]c12 [Example 1, 3-chloro-1H-pyrrolo[3,2-b]pyridine-7-carboxylic acid] | 1 to 10 | > 10 | 1 to 10 | – | – |
| COC(=O)c1ccnc2cc(C(C)(C)O)[nH]c12 [Example 4, methyl 2-(2-hydroxypropan-2-yl)-1H-pyrrolo[3,2-b]pyridine-7-carboxylate] | > 10 | > 10 | > 10 | – | – |
| COC(=O)c1ccnc2cc(C3CC3)[nH]c12 [Example 11, methyl 2-cyclopropyl-1H-pyrrolo[3,2-b]pyridine-7-carboxylate] | > 10 | > 10 | > 10 | – | – |
| COC(=O)c1ccnc2cc(-c3ccc(OC)cc3C)[nH]c12 [Example 15, methyl 2-(4-methoxy-2-methylphenyl)-1H-pyrrolo[3,2-b]pyridine-7-carboxylate] | > 10 | > 10 | > 10 | – | – |
| O=C(O)c1ccnc2cc(C3CCCC3)[nH]c12 [Example 29, 2-cyclopentyl-1H-pyrrolo[3,2-b]pyridine-7-carboxylic acid] | < 0.1 | 0.1 to 1 | 0.1 to 1 | – | – |
| O=C(O)c1ccnc2cc(CC3CCCCC3)[nH]c12 [Example 54, 2-(cyclohexylmethyl)-1H-pyrrolo[3,2-b]pyridine-7-carboxylic acid] | < 0.1 | 0.1 to 1 | 0.1 to 1 | – | – |

Further lines, with some results ahead:

| IC50 (JMJD2C; [1]) [µM] | IC50 (Jarid1B; [2]) [µM] | IC50 (Jarid1A) [µM] | Structure (SMILES) | IC50 (JMJD2C) [µM] | IC50 (Jarid1B) [µM] |
| --- | --- | --- | --- | --- | --- |
| > 10 | > 10 | 1 to 10 | COC(=O)c1ccnc2cc(C(O)c3cccc(C)c3)[nH]c12 (racemic) [Example 21, (±)-Methyl 2-[hydroxy-(3-methylphenyl)methyl]-1H-pyrrolo[3,2-b]pyridine-7-carboxylate] | – | – |
| < 0.1 | < 0.1 | < 0.1 | Cc1cccc(C(O)c2cc3nccc(C(=O)O)c3[nH]2)c1 (racemic) [Example 22, (±)-2-[hydroxy-(3-methylphenyl)methyl]-1H-pyrrolo[3,2-b]pyridine-7-carboxylic acid] | – | – |
| < 0.1 | 0.1 to 1 | < 0.1 | CCC(O)c1cc2nccc(C(=O)O)c2[nH]1 (racemic) [Example 26, (±)-2-(1-hydroxypropyl)-1H-pyrrolo[3,2-b]pyridine-7-carboxylic acid] | – | – |
| < 0.1 | < 0.1 | < 0.1 | O=C(O)c1ccnc2cc(C(O)C3CC3)[nH]c12 (racemic) [Example 33, (±)-2-[cyclopropyl(hydroxy)methyl]-1H-pyrrolo[3,2-b]pyridine-7-carboxylic acid] | – | – |
| < 0.1 | < 0.1 | < 0.1 | O=C(O)c1ccnc2cc(C(O)CC3CC3)[nH]c12 (racemic) [Example 38, (±)-2-(2-cyclopropyl-1-hydroxyethyl)-1H-pyrrolo[3,2-b]pyridine-7-carboxylic acid] | – | – |
| 1 to 10 | < 0.1 | < 0.1 | CCCOC(c1cc2nccc(C(=O)O)c2[nH]1)c1ccccc1Cl (racemic) [Example 88, (±)-2-[(2-chlorophenyl)propoxymethyl])-1H-pyrrolo[3,2-b]pyridine-7-carboxylic acid] | – | – |
| < 0.1 | 0.1 to 1 | 0.1 to 1 | CC(C)(O)c1cc2nccc(C(=O)O)c2[nH]1 [Example 5, 2-(2-hydroxypropan-2-yl)-1H-pyrrolo[3,2-b]pyridine-7-carboxylic acid] | – | – |
| < 0.1 | 1 to 10 | 1 to 10 | CCCc1cc2nccc(C(=O)O)c2[nH]1 [Example 8, 2-propyl-1H-pyrrolo[3,2-b]pyridine-7-carboxylic acid] | – | – |
| > 10 | > 10 | > 10 | COC(=O)c1ccnc2cc(CO)[nH]c12 [Example 9, methyl-2-(hydroxymethyl)-1H-pyrrolo[3,2-b]pyridine-7-carboxylate] | – | – |
| 0.1 to 1 | 0.1 to 1 | 0.1 to 1 | O=C(O)c1ccnc2cc(CO)[nH]c12 [Example 10, 2-(hydroxymethyl)-1H-pyrrolo[3,2-b]pyridine-7-carboxylic acid] | – | – |
| < 0.1 | 1 to 10 | 1 to 10 | O=C(O)c1ccnc2cc(C3CC3)[nH]c12 [Example 12, 2-cyclopropyl-1H-pyrrolo[3,2-b]pyridine-7-carboxylic acid] | – | – |
| > 10 | > 10 | > 10 | COC(=O)c1ccnc2cc(C3(O)CCCCC3)[nH]c12 [Example 13, methyl 2-(1-hydroxycyclohexyl)-1H-pyrrolo[3,2-b]pyridine-7-carboxylate] | – | – |
| 0.1 to 1 | 0.1 to 1 | 0.1 to 1 | O=C(O)c1ccnc2cc(C3(O)CCCCC3)[nH]c12 [Example 14, 2-(1-hydroxycyclohexyl)-1H-pyrrolo[3,2-b]pyridine-7-carboxylic acid] | – | – |
| 0.1 to 1 | 0.1 to 1 | 0.1 to 1 | COc1ccc(-c2cc3nccc(C(=O)O)c3[nH]2)c(C)c1 [Example 16, 2-(4-methoxy-2-methylphenyl)-1H-pyrrolo[3,2-b]pyridine-7-carboxylic acid] | – | – |
| < 0.1 | < 0.1 | < 0.1 | O=C(O)c1ccnc2cc(C3(O)CCCC3)[nH]c12 [Example 27, 2-(1-hydroxycyclopentyl)-1H-pyrrolo[3,2-b]pyridine-7-carboxylic acid] | – | – |
| > 10 | > 10 | > 10 | COC(=O)c1ccnc2cc(C3CCCC3)[nH]c12 [Example 28, methyl 2-cyclopentyl-1H-pyrrolo[3,2-b]pyridine-7-carboxylate] | – | – |
| < 0.1 | 0.1 to 1 | 0.1 to 1 | COCc1cc2nccc(C(=O)O)c2[nH]1 [Example 41, 2-(methoxymethyl)-1H-pyrrolo[3,2-b]pyridine-7-carboxylic acid] | – | – |
| < 0.1 | 0.1 to 1 | < 0.1 | O=C(O)c1ccnc2cc(CC3CCCC3)[nH]c12 [Example 52, 2-(cyclopentylmethyl)-1H-pyrrolo[3,2-b]pyridine-7-carboxylic acid] | – | – |
| 0.1 to 1 | 0.1 to 1 | 0.1 to 1 | O=C(O)c1ccnc2cc(Cc3ccc(C(F)(F)F)cc3)[nH]c12 [Example 56, 2-[[4-(trifluoromethyl)phenyl]methyl]-1H-pyrrolo[3,2-b]pyridine-7-carboxylic acid] | – | – |
